ChEMBL document CHEMBL5528039, “Discovery of a Macrocyclic Influenza Cap-Dependent Endonuclease Inhibitor” (J Med Chem, 2024)
The source made the active and inactive calls. The rule behind the calls is not given here.

Assays:
Influenza A virus [1] = test: Antiviral activity against Influenza A virus A/PR/8/34 infected in BALB/c mouse assessed as reduction in body weight loss at 5 to 30 mg/kg, po pre-infected with virus for 48 hrs followed by twice daily compound administration starting from day 2 and measured on day 5; format: functional, organism-based; settings: dose 5-30 mg/kg, time 72.0 hrs
[2] = Prodrug conversion in Beagle dog assessed as (7aS,16R)-2,3-difluoro-10-hydroxy-8-methyl-16-phenyl-6,7,7a,8-tetrahydro-16H-benzo[b]pyrido[1',2':1,6][1,2,4]triazino[2,3-e][1,5]oxazocine-9,11-dione Cmax at 1 mg/kg, po measured after 24 hrs by LC-MS/MS analysis; format: ADME, organism-based, Canis lupus familiaris; settings: in vivo
[3] = Prodrug conversion in BALB/c mouse infected with Influenza B virus B/Lee/40 assessed as (7aS,16R)-2,3-difluoro-10-hydroxy-8-methyl-16-phenyl-6,7,7a,8-tetrahydro-16H-benzo[b]pyrido[1',2':1,6][1,2,4]triazino[2,3-e][1,5]oxazocine-9,11-dione formation by measuring Ctau at 5 mg/kg, po pre-infected with virus for 24 hrs followed by twice daily compound administration from day 1 to 7 and measured on day 14 by LC-MS/MS analysis; format: ADME, organism-based; settings: in vivo, 336 h, time 14 day
[4] = Prodrug conversion in cynomolgus monkey assessed as (7aS,16R)-2,3-difluoro-10-hydroxy-8-methyl-16-phenyl-6,7,7a,8-tetrahydro-16H-benzo[b]pyrido[1',2':1,6][1,2,4]triazino[2,3-e][1,5]oxazocine-9,11-dione Cmax at 1 mg/kg, po measured after 24 hrs by LC-MS/MS analysis; format: ADME, organism-based, Macaca fascicularis; settings: in vivo
[5] = Prodrug conversion in BALB/c mouse assessed as (7aS,16R)-2,3-difluoro-10-hydroxy-8-methyl-16-phenyl-6,7,7a,8-tetrahydro-16H-benzo[b]pyrido[1',2':1,6][1,2,4]triazino[2,3-e][1,5]oxazocine-9,11-dione Cmax at 10 mg/kg, po measured after 24 hrs by LC-MS/MS analysis; format: ADME, organism-based; settings: in vivo
[6] = Prodrug conversion in Beagle dog assessed as (7aS,16R)-2,3-difluoro-10-hydroxy-8-methyl-16-phenyl-6,7,7a,8-tetrahydro-16H-benzo[b]pyrido[1',2':1,6][1,2,4]triazino[2,3-e][1,5]oxazocine-9,11-dione half-life at 1 mg/kg, po measured after 24 hrs by LC-MS/MS analysis; format: ADME, organism-based, Canis lupus familiaris; settings: in vivo
[7] = Prodrug conversion in cynomolgus monkey assessed as (7aS,16R)-2,3-difluoro-10-hydroxy-8-methyl-16-phenyl-6,7,7a,8-tetrahydro-16H-benzo[b]pyrido[1',2':1,6][1,2,4]triazino[2,3-e][1,5]oxazocine-9,11-dione half-life at 1 mg/kg, po measured after 24 hrs by LC-MS/MS analysis; format: ADME, organism-based, Macaca fascicularis; settings: in vivo
[8] = Prodrug conversion in BALB/c mouse infected with Influenza B virus B/Lee/40 assessed as (7aS,16R)-2,3-difluoro-10-hydroxy-8-methyl-16-phenyl-6,7,7a,8-tetrahydro-16H-benzo[b]pyrido[1',2':1,6][1,2,4]triazino[2,3-e][1,5]oxazocine-9,11-dione formation at 0.5 to 5 mg/kg, po pre-infected with virus for 24 hrs followed by twice daily compound administration from day 1 to 7 and measured on day 14 by LC-MS/MS analysis; format: ADME, organism-based; settings: in vivo, 336 h, dose 0.5-5 mg/kg, time 14 day
[9] = Prodrug conversion in Beagle dog assessed as (7aS,16R)-2,3-difluoro-10-hydroxy-8-methyl-16-phenyl-6,7,7a,8-tetrahydro-16H-benzo[b]pyrido[1',2':1,6][1,2,4]triazino[2,3-e][1,5]oxazocine-9,11-dione AUC (0 to last) at 1 mg/kg, po measured after 24 hrs by LC-MS/MS analysis; format: ADME, organism-based, Canis lupus familiaris; settings: in vivo
[10] = Prodrug conversion in BALB/c mouse assessed as (7aS,16R)-2,3-difluoro-10-hydroxy-8-methyl-16-phenyl-6,7,7a,8-tetrahydro-16H-benzo[b]pyrido[1',2':1,6][1,2,4]triazino[2,3-e][1,5]oxazocine-9,11-dione AUC (0 to last) at 10 mg/kg, po measured after 24 hrs by LC-MS/MS analysis; format: ADME, organism-based; settings: in vivo
Influenza B virus [11] = test: Antiviral activity against Influenza B virus B/Lee/40 infected in BALB/c mouse assessed as reduction in improvement in survival rate at 0.5 to 5 mg/kg, po pre-infected with virus for 24 hrs followed by twice daily compound administration from day 1 to 7 and measured on day 14; format: functional, organism-based; settings: dose 0.5-5 mg/kg, time 14.0 day
Influenza A virus [12] = test: Antiviral activity against Influenza A virus A/PR/8/34 infected in BALB/c mouse assessed as reduction in viral load in lungs at 5 to 30 mg/kg, po pre-infected with virus for 48 hrs followed by twice daily compound administration starting from day 2 and measured 1 hrs after last dose on day 5 by crystal violet staining based analysis; format: functional, organism-based; settings: dose 5-30 mg/kg, time 73.0 hrs
Influenza B virus [13] = test: Antiviral activity against Influenza B virus B/Lee/40 infected in BALB/c mouse assessed as reduction in body weight loss at 0.5 to 5 mg/kg, po pre-infected with virus for 24 hrs followed by twice daily compound administration from day 1 to 7 and measured on day 14; format: functional, organism-based; settings: dose 0.5-5 mg/kg, time 14.0 day
[14] = Prodrug conversion in BALB/c mouse assessed as (7aS,16R)-2,3-difluoro-10-hydroxy-8-methyl-16-phenyl-6,7,7a,8-tetrahydro-16H-benzo[b]pyrido[1',2':1,6][1,2,4]triazino[2,3-e][1,5]oxazocine-9,11-dione half-life at 10 mg/kg, po measured after 24 hrs by LC-MS/MS analysis; format: ADME, organism-based; settings: in vivo
[15] = Prodrug conversion in cynomolgus monkey assessed as (7aS,16R)-2,3-difluoro-10-hydroxy-8-methyl-16-phenyl-6,7,7a,8-tetrahydro-16H-benzo[b]pyrido[1',2':1,6][1,2,4]triazino[2,3-e][1,5]oxazocine-9,11-dione AUC (0 to last) at 1 mg/kg, po measured after 24 hrs by LC-MS/MS analysis; format: ADME, organism-based, Macaca fascicularis; settings: in vivo

With `COC(=O)OCOc1c2n(ccc1=O)N1[C@H](c3ccccc3)c3cc(F)c(F)cc3OCC[C@H]1N(C)C2=O` the Activity (Influenza A virus [1]) was “Active”, the Cmax [2] was 171 nM and the Ctau [3] was over 16 nM. It also gave a Cmax [4] of 163 nM, a Cmax [5] of 309 nM and a t1/2 [6] of 4.4 h. The t1/2 [7] was 3.6 h, the Drug metabolism [8] was “Metabolite_Detected” and the AUClast [9] was 0.724 µM·h. For the same compound, the AUClast [10] was 0.93 µM·h, the Activity (Influenza B virus [11]) was “Active” and the Activity (Influenza A virus [12]) was “Active”. For the same compound, the Activity (Influenza B virus [13]) was “Active”, the t1/2 [14] was 1.3 h and the AUClast [15] was 0.785 µM·h.
